From patent publication US20080261945A1, “Compounds Having Activity at Nk3 Receptor and Uses Thereof in Medicine” (SMITHKLINE BEECHAM CORPORATION, priority 2004, published 2008)

Target: T1, NK3 receptor (Homo sapiens, UniProt P29371)
T1 construct: expressed in transfected cells; host or cells: CHO cell lines (plasma membrane preparation)
T1 sequence (P29371 1-465): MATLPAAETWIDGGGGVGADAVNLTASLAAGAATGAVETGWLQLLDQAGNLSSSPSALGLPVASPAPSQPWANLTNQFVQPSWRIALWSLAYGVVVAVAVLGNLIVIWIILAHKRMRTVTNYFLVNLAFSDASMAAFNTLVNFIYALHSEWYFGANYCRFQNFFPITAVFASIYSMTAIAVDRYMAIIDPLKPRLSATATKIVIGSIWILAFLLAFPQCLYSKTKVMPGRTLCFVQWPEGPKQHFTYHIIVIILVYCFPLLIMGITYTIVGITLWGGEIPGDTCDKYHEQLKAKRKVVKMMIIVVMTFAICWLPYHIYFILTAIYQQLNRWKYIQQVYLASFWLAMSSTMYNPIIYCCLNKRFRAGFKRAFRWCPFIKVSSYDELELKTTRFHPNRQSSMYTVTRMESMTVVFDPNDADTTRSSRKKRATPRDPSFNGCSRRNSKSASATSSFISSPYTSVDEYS
Experiment: NK3 binding affinity, scintillation proximity assay (SPA)
Settings: 125I [MePhe7]-NKB; plasma membrane from CHO cell lines expressing NK3 receptors
Method: The NK3 binding affinity of the compounds of the invention was determined using the following scintillation proximity assay (SPA) (see H. M. Sarau et al, J. Pharmacol. Experimental Therapeutics 1997, 281(3), 1303-1311; H. M. Sarau et al, J. Pharmacol. Experimental Therapeutics 2000, 295(1), 373-381; G. A. M. Giardina et al J. Med. Chem. 1999, 42, 1053-1065). Polystyrene Leadseeker WGA-SPA beads (Amersham Biosciences) were mixed with plasma membrane prepared from CHO cell lines expressing NK3 receptors in a bead/membrane ratio of 20:1 (w/w) in assay buffer (75 mM Tris pH 7.8, 75 mM NaCl, 4 mM MnCl2, 1 mM EDTA, 0.05% Chaps, 1 mM PMSF). The mixture was placed on ice for 20 minutes to allow the formation of membrane/bead complex before BSA was added to a final concentration of 1%. After another 20 minutes incubation on ice, the bead/membrane complex was washed twice and suspended in assay buffer. ^125I [MePhe7]-NKB was then added to the bead/membrane complex. […] After 2-3 hours incubation at room temperature with shaking, the plates were spun for 2 min at 1100 rpm and measured in Viewlux imager (PerkinElmer) for 5 minutes with a 618-nm filter. Inhibition of the radioactive ligand binding to the NK3 receptor was measured by the reduction of signal. pKi was calculated using Kd of the radioactive ligand determined in a separate experiment.

## CC[C@H](NC(=O)c1c(COC[C@@H]2CCCN2C)c(-c2ccccc2)nc2ccccc12)c1ccccc1 [Example 1, 3-[({[(2S)-1-Methyl-2-pyrrolidinyl]methyl}oxy)methyl]-2-phenyl-N-[(1S)-1-phenylpropyl]-4-quinolinecarboxamide]
  Ki: 6.31 nM
